{"source": "paper PMC6979384", "about": "“Characterization of the plant homeodomain (PHD) reader family for their histone tail interactions” (Epigenetics & Chromatin, 2020)", "test_in_all_cases": "Histone peptide microarray", "assay_type_in_all_cases": "binding, human", "key": {"[1]": {"tested_on": "ING1", "settings": "ING1; sheet \"Array Heatmap\"; each array performed twice, total n = 4", "in_short": "(§1)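 Using an optimized microarray protocol, purified GST-tagged PHD fingers were incubated at 0.5 μM on 293 histone peptides with single or multiple modifications, and array signal was recorded as the average of 4 replicates.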"}, "[2]": {"tested_on": "CHD5 (PPCC)", "settings": "CHD5 (PPCC); sheet \"Array Heatmap\"; each array performed twice, total n = 4", "in_short": "as §1"}, "[3]": {"tested_on": "BPTF (PB)", "settings": "BPTF (PB); sheet \"Array Heatmap\"; each array performed twice, total n = 4", "in_short": "as §1"}, "[4]": {"tested_on": "RAG2", "settings": "RAG2; sheet \"Array Heatmap\"; each array performed twice, total n = 4", "in_short": "as §1"}, "[5]": {"tested_on": "ING4", "settings": "ING4; sheet \"Array Heatmap\"; each array performed twice, total n = 4", "in_short": "as §1"}, "[6]": {"tested_on": "KDM5A (1)", "settings": "KDM5A (1); sheet \"Array Heatmap\"; each array performed twice, total n = 4", "in_short": "as §1"}, "[7]": {"tested_on": "PHF21A", "settings": "PHF21A; sheet \"Array Heatmap\"; each array performed twice, total n = 4", "in_short": "as §1"}, "[8]": {"tested_on": "CHD4 (PPCC)", "settings": "CHD4 (PPCC); sheet \"Array Heatmap\"; each array performed twice, total n = 4", "in_short": "as §1"}, "[9]": {"tested_on": "MORC3 (CW)", "settings": "MORC3 (CW); sheet \"Array Heatmap\"; each array performed twice, total n = 4", "in_short": "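Purified PHD finger domains fused to GST are screened against 293 synthetic histone peptides bearing one or several post-translational modifications. The protein is used at 0.5 μM, and the signal from four replicate arrays is averaged, with standard deviation given.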"}, "[10]": {"tested_on": "BAZ2B", "settings": "BAZ2B; sheet \"Array Heatmap\"; each array performed twice, total n = 4", "in_short": "as §1"}, "[11]": {"tested_on": "PHF8", "settings": "PHF8; sheet \"Array Heatmap\"; each array performed twice, total n = 4", "in_short": "as §1"}, "[12]": {"tested_on": "DPF2 (PPC2W2)", "settings": "DPF2 (PPC2W2); sheet \"Array Heatmap\"; each array performed twice, total n = 4", "in_short": "as §1"}, "[13]": {"tested_on": "MLL5", "settings": "MLL5; sheet \"Array Heatmap\"; each array performed twice, total n = 4", "in_short": "as §1"}, "[14]": {"tested_on": "KDM4C (TTP)", "settings": "KDM4C (TTP); sheet \"Array Heatmap\"; each array performed twice, total n = 4", "in_short": "as §1"}, "[15]": {"tested_on": "PHRF1 (RP)", "settings": "PHRF1 (RP); sheet \"Array Heatmap\"; each array performed twice, total n = 4", "in_short": "as §1"}, "[16]": {"tested_on": "AIRE (PP)", "settings": "AIRE (PP); sheet \"Array Heatmap\"; each array performed twice, total n = 4", "in_short": "as §1"}, "[17]": {"tested_on": "TRIM66 (PB)", "settings": "TRIM66 (PB); sheet \"Array Heatmap\"; each array performed twice, total n = 4", "in_short": "as §1"}, "[18]": {"tested_on": "KDM5A (3)", "settings": "KDM5A (3); sheet \"Array Heatmap\"; each array performed twice, total n = 4", "in_short": "as §1"}, "[19]": {"tested_on": "ING2", "settings": "ING2; sheet \"Array Heatmap\"; each array performed twice, total n = 4", "in_short": "as §1"}, "[20]": {"tested_on": "KDM5B (1)", "settings": "KDM5B (1); sheet \"Array Heatmap\"; each array performed twice, total n = 4", "in_short": "as §1"}, "[21]": {"tested_on": "PHF13", "settings": "PHF13; sheet \"Array Heatmap\"; each array performed twice, total n = 4", "in_short": "as §1"}, "[22]": {"tested_on": "KDM5B (3)", "settings": "KDM5B (3); sheet \"Array Heatmap\"; each array performed twice, total n = 4", "in_short": "as §1"}, "[23]": {"tested_on": "PHF2", "settings": "PHF2; sheet \"Array Heatmap\"; each array performed twice, total n = 4", "in_short": "as §1"}, "[24]": {"tested_on": "DIDO1", "settings": "DIDO1; sheet \"Array Heatmap\"; each array performed twice, total n = 4", "in_short": "as §1"}, "[25]": {"tested_on": "SP140L", "settings": "SP140L; sheet \"Array Heatmap\"; each array performed twice, total n = 4", "in_short": "as §1"}, "[26]": {"tested_on": "TAF3", "settings": "TAF3; sheet \"Array Heatmap\"; each array performed twice, total n = 4", "in_short": "as §1"}, "[27]": {"tested_on": "ING5", "settings": "ING5; sheet \"Array Heatmap\"; each array performed twice, total n = 4", "in_short": "as §1"}, "[28]": {"tested_on": "ING3", "settings": "ING3; sheet \"Array Heatmap\"; each array performed twice, total n = 4", "in_short": "as §1"}, "[29]": {"tested_on": "KDM7A", "settings": "KDM7A; sheet \"Array Heatmap\"; each array performed twice, total n = 4", "in_short": "as §1"}, "[30]": {"tested_on": "PHF23", "settings": "PHF23; sheet \"Array Heatmap\"; each array performed twice, total n = 4", "in_short": "as §1"}, "[31]": {"tested_on": "CHD5 (PCC)", "settings": "CHD5 (PCC); sheet \"Array Heatmap\"; each array performed twice, total n = 4", "in_short": "as §1"}}, "data": [{"substance": "H3K9pro: H3 1-20 [Peptide H3K9pro]", "values": [{"measurement": "Array Heatmap value (peptide array signal)", "setting": "[1]", "result": 0.5254}, {"measurement": "Array Heatmap value (peptide array signal)", "setting": "[2]", "result": 0.5229}, {"measurement": "Array Heatmap value (peptide array signal)", "setting": "[3]", "result": 0.3368}, {"measurement": "Array Heatmap value (peptide array signal)", "setting": "[4]", "result": 0.2419}, {"measurement": "Array Heatmap value (peptide array signal)", "setting": "[5]", "result": 0.4451}, {"measurement": "Array Heatmap value (peptide array signal)", "setting": "[6]", "result": 0.4409}, {"measurement": "Array Heatmap value (peptide array signal)", "setting": "[7]", "result": 0.4435}, {"measurement": "Array Heatmap value (peptide array signal)", "setting": "[8]", "result": 0.5901}, {"measurement": "Array Heatmap value (peptide array signal)", "setting": "[9]", "result": 0.4445}, {"measurement": "Array Heatmap value (peptide array signal)", "setting": "[10]", "result": 0.4231}, {"measurement": "Array Heatmap value (peptide array signal)", "setting": "[11]", "result": 0.3451}, {"measurement": "Array Heatmap value (peptide array signal)", "setting": "[12]", "result": 0.7007}, {"measurement": "Array Heatmap value (peptide array signal)", "setting": "[13]", "result": 0.5292}, {"measurement": "Array Heatmap value (peptide array signal)", "setting": "[14]", "result": 0.4589}, {"measurement": "Array Heatmap value (peptide array signal)", "setting": "[15]", "result": 0.5869}, {"measurement": "Array Heatmap value (peptide array signal)", "setting": "[16]", "result": 0.411}, {"measurement": "Array Heatmap value (peptide array signal)", "setting": "[17]", "result": 0.5807}, {"measurement": "Array Heatmap value (peptide array signal)", "setting": "[18]", "result": 0.4398}, {"measurement": "Array Heatmap value (peptide array signal)", "setting": "[19]", "result": 0.6039}, {"measurement": "Array Heatmap value (peptide array signal)", "setting": "[20]", "result": 0.6726}, {"measurement": "Array Heatmap value (peptide array signal)", "setting": "[21]", "result": 0.5854}, {"measurement": "Array Heatmap value (peptide array signal)", "setting": "[22]", "result": 0.4382}, {"measurement": "Array Heatmap value (peptide array signal)", "setting": "[23]", "result": 0.4692}, {"measurement": "Array Heatmap value (peptide array signal)", "setting": "[24]", "result": 0.6439}, {"measurement": "Array Heatmap value (peptide array signal)", "setting": "[25]", "result": 0.3673}, {"measurement": "Array Heatmap value (peptide array signal)", "setting": "[26]", "result": 0.2557}, {"measurement": "Array Heatmap value (peptide array signal)", "setting": "[27]", "result": 0.3309}, {"measurement": "Array Heatmap value (peptide array signal)", "setting": "[28]", "result": 0.4734}, {"measurement": "Array Heatmap value (peptide array signal)", "setting": "[29]", "result": 0.3118}, {"measurement": "Array Heatmap value (peptide array signal)", "setting": "[30]", "result": 0.5285}, {"measurement": "Array Heatmap value (peptide array signal)", "setting": "[31]", "result": 0.7611}]}, {"substance": "H3K14ac (1-32): H3 1-32", "values": [{"measurement": "Array Heatmap value (peptide array signal)", "setting": "[1]", "result": 0.5563}, {"measurement": "Array Heatmap value (peptide array signal)", "setting": "[2]", "result": 0.6129}, {"measurement": "Array Heatmap value (peptide array signal)", "setting": "[3]", "result": 0.3702}, {"measurement": "Array Heatmap value (peptide array signal)", "setting": "[4]", "result": 0.2609}, {"measurement": "Array Heatmap value (peptide array signal)", "setting": "[5]", "result": 0.5113}, {"measurement": "Array Heatmap value (peptide array signal)", "setting": "[6]", "result": 0.5739}, {"measurement": "Array Heatmap value (peptide array signal)", "setting": "[7]", "result": 0.5508}, {"measurement": "Array Heatmap value (peptide array signal)", "setting": "[8]", "result": 0.5914}, {"measurement": "Array Heatmap value (peptide array signal)", "setting": "[9]", "result": 0.4902}, {"measurement": "Array Heatmap value (peptide array signal)", "setting": "[10]", "result": 0.5612}, {"measurement": "Array Heatmap value (peptide array signal)", "setting": "[11]", "result": 0.4423}, {"measurement": "Array Heatmap value (peptide array signal)", "setting": "[12]", "result": 0.88}, {"measurement": "Array Heatmap value (peptide array signal)", "setting": "[13]", "result": 0.5315}, {"measurement": "Array Heatmap value (peptide array signal)", "setting": "[14]", "result": 0.5844}, {"measurement": "Array Heatmap value (peptide array signal)", "setting": "[15]", "result": 0.5867}, {"measurement": "Array Heatmap value (peptide array signal)", "setting": "[16]", "result": 0.6762}, {"measurement": "Array Heatmap value (peptide array signal)", "setting": "[17]", "result": 0.5901}, {"measurement": "Array Heatmap value (peptide array signal)", "setting": "[18]", "result": 0.5824}, {"measurement": "Array Heatmap value (peptide array signal)", "setting": "[19]", "result": 0.6065}, {"measurement": "Array Heatmap value (peptide array signal)", "setting": "[20]", "result": 0.7332}, {"measurement": "Array Heatmap value (peptide array signal)", "setting": "[21]", "result": 0.6445}, {"measurement": "Array Heatmap value (peptide array signal)", "setting": "[22]", "result": 0.5322}, {"measurement": "Array Heatmap value (peptide array signal)", "setting": "[23]", "result": 0.4742}, {"measurement": "Array Heatmap value (peptide array signal)", "setting": "[24]", "result": 0.6524}, {"measurement": "Array Heatmap value (peptide array signal)", "setting": "[25]", "result": 0.4015}, {"measurement": "Array Heatmap value (peptide array signal)", "setting": "[26]", "result": 0.3178}, {"measurement": "Array Heatmap value (peptide array signal)", "setting": "[27]", "result": 0.3965}, {"measurement": "Array Heatmap value (peptide array signal)", "setting": "[28]", "result": 0.5035}, {"measurement": "Array Heatmap value (peptide array signal)", "setting": "[29]", "result": 0.4771}, {"measurement": "Array Heatmap value (peptide array signal)", "setting": "[30]", "result": 0.5387}, {"measurement": "Array Heatmap value (peptide array signal)", "setting": "[31]", "result": 0.9008}]}]}
